According to patent publication US12707888B2, “Asymmetric donor-acceptor molecular dyes” (THE UNIVERSITY OF NORTH CAROLINA AT CHARLOTTE, priority 2019, dated 2026):

Tests used:
HEK 293T cells [1] = assay: Photostability under continuous illumination in cells; assay type: cell-based, Human
Procedure: FIG. 12B details photostability of Bu2N-TTz-Py and VF2.1.Cl in HEK 293T cells (illuminated using λ=440 nm at […]) and their representative pseudo-gray scale images under continuous illumination at wavelength of maximum excitation. Error bars a/b represent the standard error of mean (S.E.M.) for 3 independent experiments, n=12 total cells. Scale bar=10 μm.
Microscopy. Imaging was carried out on an IX83 inverted microscope (Olympus Corporation of the Americas, Center Valley, PA, USA) using 100×, 1.4 NA, DIC oil immersion objective (PLAPON, Olympus) and an Evolve Delta 512 EMCCD camera (Photometrics, USA). Filter wheel, shutter, and CCD camera were controlled using Metamorph premier Ver 7.8.12.0 (Molecular Devices, LLC, USA). For photostability studies, HEK 293T cells were labeled with 500 nM Bu2N-TTz-Py and illuminated continuously with ~5 W cm^−2 power light source, periodically acquiring images at 1 min interval. Bu2N-TTz-Py channel images were obtained using 480/20 bandpass excitation filter, 575/40 bandpass emission filter and 89016 dichroic. VF2.1.Cl channel images were obtained using 500/20 bandpass excitation filter, 535/40 bandpass emission filter and 69002 dichroic. For CellMask™ red, images were obtained using the 640/30 bandpass excitation filter, 705/72 bandpass emission filter and 89016 dichroic.

J774.A1 cells = assay: Cell labeled spectral measurements; assay type: cell-based, Mouse
Procedure: FIG. 11C are normalized excitation/emission spectra of 1 μM Bu2N-TTz-Py in PBS buffer with 0.1% TritonX-100 before and after loading into ~0.5×10^5 J774.A1 cells. Excitation spectra (dashed line) were collected at 520 nm and emission spectra (solid line) were collected with 440 nm excitation.
Cell labeled spectral measurements. Excitation and emission spectra were collected by labeling the alveolar macrophage cell line J774.A1 (~0.5×10^5 cells) with 1 μM Bu2N-TTz-Py in phosphate buffered saline (PBS) buffer and 0.1% TritonX-100. Cells were incubated with dye for 10 min at RT, washed thrice with PBS, and dispersed in a cuvette for fluorescent spectral measurements (Fluoromax-4, Horiba Scientific, Edison, NJ, USA). Excitation spectra were collected at 520 nm emission. Emission spectra were collected by exciting at 440 nm. Electrophysiology. Whole cell voltage clamping measurements of 500 nM Bu2N-TTz-Py labeled HEK 293T cells were performed with Axopatch 200A amplifier (Molecular Devices), digitized using an NI-6251 DAQ (National Instruments), and controlled using WinWCP software (Strathclyde Electrophysiology Software). Patch pipettes were pulled using a Sutter P-97 Micropipette puller. Patch pipettes with resistances between 5-10 MOhm were used in voltage clamping experiments. The patch pipette was positioned using an MP325 motorized manipulator (Sutter). Metamorph premier Ver. 7.8.12.0 was linked to an NI-6501 DAQ to enable voltage triggered image acquisition. Extracellular solution composition was 145 mM NaCl, 20 mM glucose, 10 mM HEPES, pH 7.4, 3 mM KCl, 2 mM CaCl2), 1 mM MgCl2 (310 mOsm); and the intracellular solution composition was 115 mM potassium gluconate, 10 mM EGTA tetrapotassium salt, 10 mM HEPES, pH 7.2, 5 mM NaCl, 10 mM KCl, 2 mM ATP disodium salt (290 mOsm).

HEK 293T cells [2] = assay: Annexin V-Cy5 cytotoxicity; assay type: cell-based, Human; settings: 500 nM dye for 15 min
Procedure: FIG. 12C provides Annexin V-Cy5 staining of HEK 293T cells incubated with DMSO (Veh.), VF2.1.Cl, and Bu2N-TTz-Py. Apoptosis for control (incubated cells 65° C., 10 min). Percentages of cytotoxicity were calculated as number of 100×Cy5 positive cells per number of nuclei stained. Error bars represent S.E.M. of three independent experiments, n=250 cells. Scale bars=10 μm.
Lastly, the cellular toxicities of Bu2N-TTz-Py and VF2.1.Cl were characterized using Annexin V-Cy5 staining of phosphatidylserine. HEK 293T cells were labelled with Bu2N-TTz-Py or VF2.1.Cl for 15 min, incubated with Annexin V-Cy5 for 20 min in the dark, washed, and fixed with 4% paraformaldehyde before imaging. As a positive control, apoptosis was induced via high-temperature incubation (65° C., 10 min).
Cellular localization: Time-lapse imaging was performed to probe the membrane localization of Bu2N-TTz-Py at longer time scale. […] Intensity values at plasma membrane (IPM) were calculated by drawing regions of interest (ROI) around the whole cell and subtracting intracellular intensity (IIM, ROI drawn within the cell) for Bu2N-TTz-Py and CellMask images, respectively. […] Cytotoxicity percentage is calculated as number of Annexin V-Cy5 positive cells to total number of nuclear stained cells. Number of cells quantification were performed using Analyze particle function of ImageJ program.

HEK 293T cells [3] = assay: Whole-cell patch clamp voltage sensitivity; assay type: cell-based, Human; settings: 500 nM dye, cells held at −60 mV, 10 mV steps
Procedure: Having established its environmental sensitivity and proclivity for membrane localization, it was hypothesized that Bu2N-TTz-Py could orient itself favorably within cell membranes and sense voltage differentials across the membrane. To test the membrane voltage sensitivity of Bu2N-TTz-Py, whole-cell patch clamp electrophysiology was performed on HEK 293T cells labeled with 500 nM Bu2N-TTz-Py. […] Tests concluded that Bu2N-TTz-Py has a voltage sensitivity of approximately 10% ΔF/F per 100 mV. For context, early generation VSDs, such as RH-421, ANNINE-6, and VF2.1.Cl, display maximum voltage sensitivities of 10%-25% ΔF/F per 100 mV.
Cell labeled spectral measurements. Excitation and emission spectra were collected by labeling the alveolar macrophage cell line J774.A1 (~0.5×10^5 cells) with 1 μM Bu2N-TTz-Py in phosphate buffered saline (PBS) buffer and 0.1% TritonX-100. Cells were incubated with dye for 10 min at RT, washed thrice with PBS, and dispersed in a cuvette for fluorescent spectral measurements (Fluoromax-4, Horiba Scientific, Edison, NJ, USA). Excitation spectra were collected at 520 nm emission. Emission spectra were collected by exciting at 440 nm. Electrophysiology. […]

[4] = Solubility in aqueous environments; assay type: physicochemical

molar absorptivity ε (HEK 293T cells [1]; @ 440 nm LED): 15,000-20,000 cm^−1 M^−1
decay of fluorescence intensity (HEK 293T cells [1]; in the same amount of time (approx. 7.5 minutes), I=5 W cm^−2, 440 nm LED): less than 10%
peak emission wavelength (J774.A1 cells; localized to cell membranes, 440 nm excitation): 483 nm
peak excitation wavelength (J774.A1 cells; localized to cell membranes, collected at 520 nm emission): 423 nm
wavelength of peak emission (J774.A1 cells; solution of PBS with 0.1% Triton-X100, before loading into cells): 518 nm
solubility in aqueous environments [4]: poor solubility
Compound: CCCCN(CCCC)c1ccc(-c2nc3sc(-c4ccncc4)nc3s2)cc1 [Bu2N-TTz-Py, 2-(N,N-dibutyl-4-aminophenyl)-5-(4-pyridyl) thiazolo[5,4-d]thiazole]
cytotoxicity (Annexin V-Cy5 staining) (HEK 293T cells [2]): insignificant cytotoxicity
voltage sensitivity (HEK 293T cells [3]): approximately 10 % ΔF/F per 100 mV
